Assay results taken from paper PMC8143291, “Cytotoxicity and Microbicidal Activity of Commonly Used Organic Solvents: A Comparative Study and Application to a Standardized Extract from Vaccinium macrocarpon” (Toxics, 2021).

Tests used:
S. epidermidis = system: S. epidermidis; design: method as in doi:10.5580/b43; conditions: in the presence of 6% solvent; cited from earlier work
[1] = system: Staphylococcus epidermidis, Salmonella paratyphi A, Vibrio cholerae, Shigella flexneri and Pseudomonas oleovorans; conditions: cited from earlier work
E. faecalis ATCC 29212 = assay: Dehydrogenase activity (DEHA) MTT test after BMD; type: cell-based, Enterococcus faecalis; conditions: 24 h exposure; % against untreated control; ± SD; n = 3
Experimental: (§1) The cell dehydrogenase (DEHA, redox, metabolic) activity of all samples was measured at the end of the BMD assay, based on reducing the MTT dye to formazan by the membrane located bacterial enzyme NADH: ubiquinone reductase (H^+-translocation). The protocol of Wang et al. was applied after minor modifications. Briefly, each sample was incubated for 120 min at 37 °C with MTT at a final concentration of 0.5 mg/mL in the culture medium. The resulting non-soluble violet formazan crystals were dissolved with an equal volume of 2-propanol supplemented with 5% formic acid. The absorbance was measured at 550 nm against a blank solution containing the respective volumes of MHB and MTT.
(§2) The cell viability is presented as a percentage of the untreated control. At least four wells were seeded for every concentration. Three independent assays were performed (n = 3). […] The respiratory activity of the bacterial cultures was calculated as a percentage against the untreated control.

S. pyogenes SAIMC 10535 = assay: Dehydrogenase activity (DEHA) MTT test after BMD; type: cell-based, Streptococcus pyogenes; conditions: 24 h exposure; % against untreated control; ± SD; n = 3
Experimental: as §1, §2

P. aeruginosa ATCC 27853 = assay: Dehydrogenase activity (DEHA) MTT test after BMD; type: cell-based, Pseudomonas aeruginosa; conditions: for DEHA (dehydrogenase activity): 24 h exposure, % against untreated control, ± SD, n = 3
Experimental: as §1, §2

[2] = system: A-431 (non-melanoma epidermoid squamous skin carcinoma); assay: MTT dye-reduction cytotoxicity assay (ISO 10993-5); type: cell-based, human; conditions: solvent alone, n = 3; for MTC (maximum tolerated concentration): 72 h, at least 70% of cells viable
Source text: (§3) The cell lines utilized in this study included the human tumor lines A-375 (malignant melanoma) and A-431 (non-melanoma epidermoid squamous skin carcinoma) as well as the models for non-tumorigenic cells—HaCaT (immortalized human keratinocytes) and CCL-1^TM (transformed mouse fibroblasts, NCTC clone 929). The first three cell lines were obtained from CLS Cell Lines Service (GmbH, Eppelheim, Germany). CCL-1^TM was purchased from the American Type Culture Collection (ATCC, Manassas, VA, USA). Cells were maintained in a controlled environment—sterile cell culture flasks in a CO2 incubator Panasonic MCO-18AC (Panasonic Healthcare co., ltd, Oizumi-Machi, Japan) at 37 °C and a humidified atmosphere containing 5% CO2. CCL-1 was cultured in MEM with 10% heat-inactivated horse serum and 2 mM L-glutamine, and the cell culture medium for the rest of the cell lines was DMEM-HG with 4.5 g/L glucose with the addition of 10% heat-inactivated fetal bovine serum and 4 mM L-glutamine. Pen/strep (concentration of penicillin G sodium 10^5 Units/L and of streptomycin sulfate 100 mg/L) was added to both culture media. The cell lines were maintained as an adherent monolayer in a log phase. The cells were sub-cultivated about 1–3 times per week after the monolayer reached 80–90% confluence. The medium was removed from the flask, and the cell monolayer was washed with 3–5 mL PBS. The cells were incubated with 0.05% EDTA in PBS for 8–10 min, followed by the next step where all cell lines were subjected to enzyme cell detachment. HaCaT and CCL-1 monolayers were detached with 1 mL solution of trypsin/EDTA (0.1%/0.05% for HaCaT and 0.25% (w/v)/0.53 mM for CCL-1) and incubated for 2–5 min at 37 °C (for HaCaT) or at room temperature (for CCL-1 cells), whereas Accutase® was used for A-375 and A-431 lines. The incubation lasted until the separation and dispersion of the cells in the monolayer were observed using light microscopy. In the end, all cell lines were resuspended in 10 mL medium and centrifuged for 3 min at 300× g. The cell pellet was resuspended in fresh medium and sub-cultivated at a seeding density of 1.0 × 10^4 cells/cm^2.
(§4) The MTT test was performed in order to determine the median inhibitory (IC50) and MTC concentrations of the solvents and PAC according to Annex C, ISO 10993-5 [2, 21]. Briefly, 100 µL of the cell suspension (1 × 10^5 cells/mL) were seeded per well in 96-well plates with a flat bottom. The cells were incubated for 24 h, allowing them to enter the log phase of their growth. On the 24th hour, the cells were treated with the solvents or CystiCran® solutions in concentrations ranging between 0.004% and 2% volume fraction (v/v) and incubated further for 72 h. The incubation periods are following the recommendations of the FDA guide for the use of ISO 10993-1 [1]. At the end of the incubation period, 10 µL of an MTT solution (5 mg/mL) were added to each well, and the plates were kept at 37 °C for 2 hours. Thereafter, the medium was aspirated, and the formed formazan crystals were dissolved in 100 μL/well of 2-propanol supplemented with 5% formic acid. The same solvent was used as a blank. […] The absorption was measured at 540 nm (reference filter at 690 nm) on a microplate reader ELx800 (BioTek Instruments, Inc., Winooski, VT, Winooski, VT, USA).
The IC50 values from the MTT assay were evaluated with a non-linear regression analysis (Curve fit, GraphPad Prizm 6.01 software, GraphPad Software Inc., San Diego, CA, USA) using sigmoidal concentration–response curves. […]

[3] = system: breast cancer, mouse macrophage and human umbilical vein endothelial cells; design: method as in doi:10.17795/ajmb-33453; conditions: cited from earlier work
[4] = system: CCL-1 (transformed mouse fibroblasts, NCTC clone 929); assay: MTT dye-reduction cytotoxicity assay (ISO 10993-5); type: cell-based; conditions: for MTC (maximum tolerated concentration): at least 70% of cells viable
Source text: as §3
as §4, with “blank. Untreated cells were considered as a negative control.” for “blank.”
The IC50 values from the MTT assay were evaluated with a non-linear regression analysis (Curve fit, GraphPad Prizm 6.01 software, GraphPad Software Inc., San Diego, CA, USA) using sigmoidal concentration–response curves. The cell viability is presented as a percentage of the untreated control. At least four wells were seeded for every concentration. Three independent assays were performed (n = 3).

Row | Compound | survival (S. epidermidis) [%] | MTC [1] [% volume fraction] | DEHA (dehydrogenase activity) (E. faecalis ATCC 29212) [%] | DEHA (dehydrogenase activity) (S. pyogenes SAIMC 10535) [%] | DEHA (dehydrogenase activity) (P. aeruginosa ATCC 27853) [%] | MTC (maximum tolerated concentration) [2] | IC50 (CI 95%) ([2]; 72 h incubation) | growth inhibition ([1]; at a concentration of 1% v/v) [%] | maximum tolerated concentration (MTC) / applicable concentration [3] | MTC (maximum tolerated concentration) ([4]; solvent alone, 72 h, n = 3) | IC50 value ([4]; 72 h, equals 1.16% v/v) [mg/mL] | IC50 (CI 95%) ([4]; solvent alone, 72 h incubation, n = 3) | suppression of the respiratory activity (P. aeruginosa ATCC 27853; P. aeruginosa) [%]
1 | C[S+](C)[O-] [DMSO, dimethyl sulfoxide] | 15 | 3 | 29.86 ± 0.08 | 27.27 ± 0.02 | 9.78 ± 0.01 |  |  |  |  |  |  |  | 
2 | CCO [EtOH, ethanol] | 26 |  |  |  |  | > 2 % (v/v) | > 2 % (v/v) | 19 | up to 0.5 % v/v | 1.15 % (v/v) |  |  | 
3 | polyethylene glycol of average molecular weight 400 [PEG-400] |  |  | 65.33 ± 0.06 | 23.66 ± 0.02 | 15.31 ± 0.04 | 0.89 % (v/v) |  |  |  | 0.21 % (v/v) | 13 | 1.16 % (v/v) | ~85
